Assay results taken from PubChem BioAssay AID1259407 (Chemical Carcinogenesis Research Information System (CCRIS), 2018).
Activity calls are given as the source filed them. No rule for the calls is given here.

Test system: CCRIS mutagenicity, Ames/micronucleus/aberration tests
Assay: CCRIS mutagenicity studies
[1] = Test System: AMES SALMONELLA TYPHIMURIUM, Strain/Indicator: TA98, Metabolic Activation: NONE, Method: PREINCUBATION
[2] = Test System: AMES SALMONELLA TYPHIMURIUM, Strain/Indicator: TA100, Metabolic Activation: NONE, Method: PREINCUBATION
[3] = Test System: AMES SALMONELLA TYPHIMURIUM, Strain/Indicator: TA1535, Metabolic Activation: NONE, Method: PREINCUBATION
[4] = Test System: AMES SALMONELLA TYPHIMURIUM, Strain/Indicator: TA1537, Metabolic Activation: NONE, Method: PREINCUBATION

Measured: mutagenic call

CC(C)(C)C(=O)C(Oc1ccc(Cl)cc1)n1ccnc1 (centres undefined)
active: Test System: UDS Rat hepatocytes, Strain/Indicator: Thymidine incorporation, Method: In vivo - in vitro, measurement by autoradiography active; positive
inactive: [1] inactive; negative | Test System: AMES SALMONELLA TYPHIMURIUM, Strain/Indicator: TA98, Metabolic Activation: RAT, LIVER, S-9, PCB, Method: PREINCUBATION inactive; negative | [2] inactive; negative | Test System: AMES SALMONELLA TYPHIMURIUM, Strain/Indicator: TA100, Metabolic Activation: RAT, LIVER, S-9, PCB, Method: PREINCUBATION inactive; negative | [3] inactive; negative | Test System: AMES SALMONELLA TYPHIMURIUM, Strain/Indicator: TA1535, Metabolic Activation: RAT, LIVER, S-9, PCB, Method: PREINCUBATION inactive; negative | [4] inactive; negative | Test System: AMES SALMONELLA TYPHIMURIUM, Strain/Indicator: TA1537, Metabolic Activation: RAT, LIVER, S-9, PCB, Method: PREINCUBATION inactive; negative | Test System: AMES SALMONELLA TYPHIMURIUM, Strain/Indicator: TA1538, Metabolic Activation: NONE, Method: PREINCUBATION inactive; negative | Test System: AMES SALMONELLA TYPHIMURIUM, Strain/Indicator: TA1538, Metabolic Activation: RAT, LIVER, S-9, PCB, Method: PREINCUBATION inactive; negative | Test System: Ames Salmonella typhimurium, Strain/Indicator: TA98, Metabolic Activation: None, Method: Plate incorporation inactive; negative | Test System: Ames Salmonella typhimurium, Strain/Indicator: TA98, Metabolic Activation: None, Method: Preincubation inactive; negative | Test System: Ames Salmonella typhimurium, Strain/Indicator: TA98, Metabolic Activation: Rat, Liver, S-9, Aroclor, Method: Plate incorporation inactive; negative | Test System: Ames Salmonella typhimurium, Strain/Indicator: TA98, Metabolic Activation: Rat, Liver, S-9, Aroclor, Method: Preincubation inactive; negative | Test System: Ames Salmonella typhimurium, Strain/Indicator: TA100, Metabolic Activation: None, Method: Plate incorporation inactive; negative | Test System: Ames Salmonella typhimurium, Strain/Indicator: TA100, Metabolic Activation: None, Method: Preincubation inactive; negative | Test System: Ames Salmonella typhimurium, Strain/Indicator: TA100, Metabolic Activation: Rat, Liver, S-9, Aroclor, Method: Plate incorporation inactive; negative | Test System: Ames Salmonella typhimurium, Strain/Indicator: TA100, Metabolic Activation: Rat, Liver, S-9, Aroclor, Method: Preincubation inactive; negative | Test System: Ames Salmonella typhimurium, Strain/Indicator: TA1535, Metabolic Activation: None, Method: Plate incorporation inactive; negative | Test System: Ames Salmonella typhimurium, Strain/Indicator: TA1535, Metabolic Activation: None, Method: Preincubation inactive; negative | Test System: Ames Salmonella typhimurium, Strain/Indicator: TA1535, Metabolic Activation: Rat, Liver, S-9, Aroclor, Method: Plate incorporation inactive; negative | Test System: Ames Salmonella typhimurium, Strain/Indicator: TA1535, Metabolic Activation: Rat, Liver, S-9, Aroclor, Method: Preincubation inactive; negative | Test System: Ames Salmonella typhimurium, Strain/Indicator: TA1537, Metabolic Activation: None, Method: Plate incorporation inactive; negative | Test System: Ames Salmonella typhimurium, Strain/Indicator: TA1537, Metabolic Activation: None, Method: Preincubation inactive; negative | Test System: Ames Salmonella typhimurium, Strain/Indicator: TA1537, Metabolic Activation: Rat, Liver, S-9, Aroclor, Method: Plate incorporation inactive; negative | Test System: Ames Salmonella typhimurium, Strain/Indicator: TA1537, Metabolic Activation: Rat, Liver, S-9, Aroclor, Method: Preincubation inactive; negative | Test System: E. COLI, Strain/Indicator: WP2 UVRA, Metabolic Activation: NONE, Method: PREINCUBATION inactive; negative | Test System: E. coli, Strain/Indicator: WP2uvrA (pKM101), Metabolic Activation: None, Method: Plate incorporation inactive; negative | Test System: E. coli, Strain/Indicator: WP2uvrA (pKM101), Metabolic Activation: None, Method: Preincubation inactive; negative | Test System: E. coli, Strain/Indicator: WP2uvrA (pKM101), Metabolic Activation: Rat, Liver, S-9, Aroclor, Method: Plate incorporation inactive; negative | Test System: E. coli, Strain/Indicator: WP2uvrA (pKM101), Metabolic Activation: Rat, Liver, S-9, Aroclor, Method: Preincubation inactive; negative | Test System: In vitro micronucleus, Strain/Indicator: Human lymphocytes, Metabolic Activation: None inactive; negative | Test System: In vivo micronucleus, Species: Mouse, Strain/Sex: ICR/Male, Route: Oral (gavage) inactive; negative | Test System: Mouse lymphoma L5178Y/TK+/- cells, Strain/Indicator: WP2 uvrA (pKM101), Metabolic Activation: Rat, Liver, S-9, Aroclor 1254, Method: Suspension/plate inactive; negative

Clc1ccccc1-c1ccccc1
active: End Point: In vivo mutagenicity, Test System: Liver, Species: Rat, Strain/Sex: Big Blue/Male, Route: Intraperitoneal active; positive; statistically significant increase of mutant frequency of liver laci g

O=c1[nH]c(=O)n(Cl)c(=O)n1Cl
inactive: Test System: AMES SALMONELLA TYPHIMURIUM, Strain/Indicator: TA98, Metabolic Activation: HAMSTER, LIVER, S-9, AROCLOR 1254 (10%), Method: PREINCUBATION inactive; negative | [1] inactive; negative | Test System: AMES SALMONELLA TYPHIMURIUM, Strain/Indicator: TA98, Metabolic Activation: RAT, LIVER, S-9, AROCLOR 1254 (10%), Method: PREINCUBATION inactive; negative | Test System: AMES SALMONELLA TYPHIMURIUM, Strain/Indicator: TA100, Metabolic Activation: HAMSTER, LIVER, S-9, AROCLOR 1254 (10%), Method: PREINCUBATION inactive; negative | [2] inactive; negative | Test System: AMES SALMONELLA TYPHIMURIUM, Strain/Indicator: TA100, Metabolic Activation: RAT, LIVER, S-9, AROCLOR 1254 (10%), Method: PREINCUBATION inactive; negative | Test System: AMES SALMONELLA TYPHIMURIUM, Strain/Indicator: TA1535, Metabolic Activation: HAMSTER, LIVER, S-9, AROCLOR 1254 (10%), Method: PREINCUBATION inactive; negative | [3] inactive; negative | Test System: AMES SALMONELLA TYPHIMURIUM, Strain/Indicator: TA1535, Metabolic Activation: RAT, LIVER, S-9, AROCLOR 1254 (10%), Method: PREINCUBATION inactive; negative | Test System: AMES SALMONELLA TYPHIMURIUM, Strain/Indicator: TA1537, Metabolic Activation: HAMSTER, LIVER, S-9, AROCLOR 1254 (10%), Method: PREINCUBATION inactive; negative | [4] inactive; negative | Test System: AMES SALMONELLA TYPHIMURIUM, Strain/Indicator: TA1537, Metabolic Activation: RAT, LIVER, S-9, AROCLOR 1254 (10%), Method: PREINCUBATION inactive; negative

Cc1ncc([N+](=O)[O-])n1CC(O)CCl (centres undefined)
active: End Point: IN VITRO CHROMOSOMAL ABERRATIONS, Test System: HUMAN LYMPHOCYTES, Metabolic Activation: NONE active; positive (structural changes)
